# Measurements reported in ChEMBL document CHEMBL1159101, “Structural diversity of nucleoside phosphonic acids as a key factor in the discovery of potent inhibitors of rat T-cell lymphoma thymidine phosphorylase” (Bioorg Med Chem Lett, 2010).
# Tests used:
# Thymidine phosphorylase = biological target: T1, Thymidine phosphorylase (Rattus norvegicus, UniProt Q5FVR2); assay: Inhibition of thymidine phosphorylase in T cell lymphomas of Sprague-Dawley rat in presence of 100 uM thymidine and 200 uM phosphate; assay type: cell-based
# T1 sequence (Q5FVR2 whole entry): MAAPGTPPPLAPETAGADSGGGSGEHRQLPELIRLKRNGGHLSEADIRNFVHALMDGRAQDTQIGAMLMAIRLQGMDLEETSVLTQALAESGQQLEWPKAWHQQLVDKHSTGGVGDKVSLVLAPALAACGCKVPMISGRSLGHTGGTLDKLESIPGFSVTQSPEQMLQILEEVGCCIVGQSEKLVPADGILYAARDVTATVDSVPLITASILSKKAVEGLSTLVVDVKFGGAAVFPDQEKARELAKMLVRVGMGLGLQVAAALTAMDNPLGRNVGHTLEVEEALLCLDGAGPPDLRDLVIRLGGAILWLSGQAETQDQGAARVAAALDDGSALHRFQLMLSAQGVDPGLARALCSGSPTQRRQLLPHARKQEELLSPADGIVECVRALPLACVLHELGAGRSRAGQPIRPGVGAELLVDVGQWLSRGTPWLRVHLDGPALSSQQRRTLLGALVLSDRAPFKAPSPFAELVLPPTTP
# [1] = biological target: T2, Thymidine phosphorylase (Rattus norvegicus) (UniProt Q5FVR2); assay: Inhibition of thymidine phosphorylase in T cell lymphomas of Sprague-Dawley rat assessed as residual activity at 10 uM in presence of 100 uM thymidine and 200 uM phosphate
# T2 sequence (whole entry): T1 sequence (Q5FVR2 whole entry)
Compound,IC50 (Thymidine phosphorylase),Activity [1]
Cc1cn([C@H]2C[C@H]3O[C@](c4ccccc4)(P(=O)(O)O)OC[C@H]3O2)c(=O)[nH]c1=O,–,4%
O=c1ccn([C@H]2C[C@@H](CO)N(CP(=O)(O)O)C2)c(=O)[nH]1,–,17%
Cc1cn(CCOC2(P(=O)(O)O)CCCCC2)c(=O)[nH]c1=O,–,21%
Cc1cn(CCOC2(P(=O)(O)O)CCCC2)c(=O)[nH]c1=O,–,14%
Cc1cn([C@H]2C[C@H]3O[C@@](c4ccccc4)(P(=O)(O)O)OC[C@H]3O2)c(=O)[nH]c1=O,–,47%
Cc1cn(CCOC(c2ccccc2)P(=O)(O)O)c(=O)[nH]c1=O (stereo not given),–,9%
Cc1cn([C@H]2C[C@H]3O[C@](CBr)(P(=O)(O)O)OC[C@H]3O2)c(=O)[nH]c1=O,–,20%
C=CCOC(Cn1cc(C)c(=O)[nH]c1=O)OCP(=O)(O)O (stereo not given),300 nM,10%
Cc1cn(CC(OCP(=O)(O)O)Oc2ccccc2)c(=O)[nH]c1=O (stereo not given),750 nM,1%
Cc1cn([C@H]2C[C@H]3O[C@@](CBr)(P(=O)(O)O)OC[C@H]3O2)c(=O)[nH]c1=O,–,26%

# Further lines, results first:
IC50 (Thymidine phosphorylase),Activity [1],Compound
350 nM,3%,Cc1cn(C2CCN(C(=O)P(=O)(O)O)C2)c(=O)[nH]c1=O (racemic)
45 nM,2%,Cc1cn([C@H]2C[C@H](CO)N(C(=O)P(=O)(O)O)C2)c(=O)[nH]c1=O
190 nM,9%,Cc1cn(C2CCN(C(=S)P(=O)(O)O)C2)c(=O)[nH]c1=O (racemic)
15 nM,0%,Cc1cn([C@@H]2CN(C(=S)P(=O)(O)O)C[C@@H]2O)c(=O)[nH]c1=O
220 nM,4%,Cc1cn([C@@H]2CN(C(=O)P(=O)(O)O)C[C@H]2O)c(=O)[nH]c1=O
250 nM,0%,Cc1cn([C@H]2C[C@H](CO)N(CP(=O)(O)O)C2)c(=O)[nH]c1=O
–,29%,Cc1cn(C2CCN(CP(=O)(O)O)C2)c(=O)[nH]c1=O (racemic)
45 nM,1%,Cc1cn([C@@H]2CN(CP(=O)(O)O)C[C@@H]2O)c(=O)[nH]c1=O
11 nM,0%,Cc1cn([C@@H]2CN(C(=O)P(=O)(O)O)C[C@@H]2O)c(=O)[nH]c1=O
–,59%,Cc1cn(C2CCN(C(=O)CP(=O)(O)O)C2)c(=O)[nH]c1=O (racemic)
